Values joined by “and” are separate entries in the source; they are usually repeats but may differ in a detail not shown here. Equal entries are not always repeated.
Assays:
[1] = Stability and protonation constants of Ca(II) complexes by pH-potentiometry; format: physicochemical; conditions: Ca^2+ complex; T = 25 °C, I = 0.15 M NaCl
Experimental: The stability and protonation constants of the metal complexes formed with H2OPC2A were determined by pH-potentiometric titrations, but, for the Cu(II) complex, UV-Vis spectrophotometric measurements were also carried out to supplement the pH-potentiometric titration data (Figures S21 and S22, Supporting Information).
Metal stock solutions were prepared from the highest analytical grade chemicals, and their concentrations were determined by complexometric titration with standardized Na2H2EDTA and eriochrome black T indicator in the presence of ascorbic acid, and potassium hydrogen tartrate for MnCl2, murexide indicator for CaCl2 and CuCl2, eriochrome black T for MgCl2 and xylenol orange in the presence of hexamethylenetetramine for the solution of ZnCl2. The concentration of the ligand stock solution was determined by pH-potentiometric titrations. The protonation constants of the ligand were determined by the pH potentiometric titrations with 0.15 M NaOH, using 0.0025 M ligand solutions. The ionic strength was set to 0.15 M by using NaCl. […]
To avoid the effect of CO2, N2 gas was bubbled through the solutions during the titrations process. […] For the calibration of the pH meter, KH-phtalate (pH = 4.005) and borax (pH = 9.177) buffers were used, and the H^+ ion concentrations were calculated from the measured pH values by applying the method proposed by Irving et al.. […]

[2] = Metal exchange reactions with Cu(II) followed by UV-Vis as a function of pH; format: physicochemical
Experimental: Metal exchange reactions occurring with Cu(II) studied as a function of pH: a more detailed dissociation kinetic study was performed by using the Cu(II) ion. Metal exchange reactions occurring with Cu(II) were followed by UV-Vis as a function of the pH (in the pH range of 3.44–4.97) and metal ion concentration (20- and 40-fold excess of Cu(II) was applied), in order to evaluate the rates of spontaneous (k0 rate constant) and/or proton assisted (k1 rate constant) and/or metal ion provoked dissociation (kM).
As it can be seen in Figure 4, the rate constants (kobs) are proportional to the H^+ ion concentration, while they slightly decrease with the increasing Cu(II) concentration. Therefore, one can assume that [Mn(3,9-OPC2A)] dissociates by following spontaneous (the positive value of the intercept with the y axis) and proton assisted pathways, while Cu(II) is involved in the formation of a dinuclear intermediate with a relatively low stability [Mn(3,9-OPC2A)Cu]^2+, which is a “dead-end” complex (i.e., its formation reduces the concentration of the reactive protonated species, thereby slowing down the reaction). The dissociation pathways followed by [Mn(3,9-OPC2A)] can be accounted for by Equation (1), where [Mn(L)]t is the total concentration of the Mn(II) complex, and the k0, kH, and kM are the rate constants characterizing the spontaneous, the proton and metal ion assisted pathways, respectively. (1) −d[Mn(L)]/dt=kobs[Mn(L)]t=k0[Mn(L)]+kH[Mn(HL)]+kHHMnH2L+kM[Mn(L)Cu]
Using the expressions for the stability and protonation constants of the complexes, and that of the dinuclear intermediate [Mn(L)Cu], one can derive Equation (1) (in this expression k1 = kH × KMnL×H; k2 = kH^H × KMnL×H; × KMnLH×H; k3 = kM × KMnL×Cu; where KMnL×H; and KMnLH×H are the protonation constants of [Mn(3,9-OPC2A)] and KMnL×Cu is the stability constant of the dinuclear [Mn(3,9-OPC2A)Cu]^2+ intermediate, which is used for the fitting of the kobs rate data—the proton assisted dissociation pathways involving a diprotonated intermediate, characterized k2, play a negligible role in the dissociation of the [Mn(3,9-OPC2A)] complex under the experimental conditions used for kinetic studies. (2) kobs=k0+k1H^+/1+KHH^++KMCu^2+
Metal exchange reactions occurring between the complex and Cu(II) (in the presence of a 20- and 40-fold excess, to ensure pseudo-first-order conditions) was investigated at 25 °C and 0.15 M NaCl ionic strength, by using a JASCO V-760 UV-VIS spectrophotometer at 290 nm. […] The values of the pseudo-first-order rate constants (kobs) were determined using the following equation: At = Av + (A0 − Av)e^kobs×t, where At is the absorbance at time t, A0 is the absorbance of the reactants, and Av is the absorbance of the products.

log KMnL [1]	t1/2 (h) at pH = 7.4 ([2]; extrapolated to pH = 7.4 from Cu(II) exchange rate constants, calculated with the use of k0 value, cZn(II) = 1 × 10^−5 M)	KML x Cu ([2]; stability constant of dinuclear intermediate, T = 25 °C, I = 0.15 M NaCl)	Structure (SMILES)	k1 ([2]; proton assisted dissociation, T = 25 °C, I = 0.15 M NaCl)	k0 ([2]; spontaneous dissociation, T = 25 °C, I = 0.15 M NaCl, to be treated as higher limit)
8.27(1)			O=C(O)CN1CCOCCN(CC(=O)O)Cc2cccc(n2)C1 [H23,9-OPC2A, 6-Oxa-3,9,15-triazabicyclo(9.3.1)pentadeca-1(15),11,13-triene-3,9-diacetic acid]		
	21.9 h	7 ± 4	O=C([O-])CN1CCOCCN(CC(=O)[O-])Cc2cccc(n2)C1.[Mn+2] [[Mn(3,9-OPC2A)]]	2.81 ± 0.07 M⁻¹ s⁻¹ and 2.81 M⁻¹ s⁻¹	(8.6 ± 1.1) × 10^−6 s^−1

Reference: publication PMC8778187, “A New Oxygen Containing Pyclen-Type Ligand as a Manganese(II) Binder for MRI and ^52Mn PET Applications: Equilibrium, Kinetic, Relaxometric, Structural and Radiochemical Studies” (Molecules, 2022)
